One experiment addresses EGFR wild type (EGFR WT) (Homo sapiens (Human), UniProt P00533). The experiment in a line: Cellular Phosphorylation Assay, Assay 5 (EGF-stimulated EGFR phosphorylation, NIH 3T3 cells). The format is cell-based.
For experiment [1], the target named is ErbB2 with Exon 20 YVMA insertion (HER2-YVMA) (Homo sapiens (Human), UniProt P04626, INS775YVMA). The experiment in a line: Cellular Phosphorylation Assay, Assay 4 (constitutive ErbB2 phosphorylation, NIH 3T3 cells). The format is cell-based.
Chain of ErbB2 with Exon 20 YVMA insertion (HER2-YVMA) (P04626 other isoform, or with tags, fused parts or gaps ins YVMA behind 775): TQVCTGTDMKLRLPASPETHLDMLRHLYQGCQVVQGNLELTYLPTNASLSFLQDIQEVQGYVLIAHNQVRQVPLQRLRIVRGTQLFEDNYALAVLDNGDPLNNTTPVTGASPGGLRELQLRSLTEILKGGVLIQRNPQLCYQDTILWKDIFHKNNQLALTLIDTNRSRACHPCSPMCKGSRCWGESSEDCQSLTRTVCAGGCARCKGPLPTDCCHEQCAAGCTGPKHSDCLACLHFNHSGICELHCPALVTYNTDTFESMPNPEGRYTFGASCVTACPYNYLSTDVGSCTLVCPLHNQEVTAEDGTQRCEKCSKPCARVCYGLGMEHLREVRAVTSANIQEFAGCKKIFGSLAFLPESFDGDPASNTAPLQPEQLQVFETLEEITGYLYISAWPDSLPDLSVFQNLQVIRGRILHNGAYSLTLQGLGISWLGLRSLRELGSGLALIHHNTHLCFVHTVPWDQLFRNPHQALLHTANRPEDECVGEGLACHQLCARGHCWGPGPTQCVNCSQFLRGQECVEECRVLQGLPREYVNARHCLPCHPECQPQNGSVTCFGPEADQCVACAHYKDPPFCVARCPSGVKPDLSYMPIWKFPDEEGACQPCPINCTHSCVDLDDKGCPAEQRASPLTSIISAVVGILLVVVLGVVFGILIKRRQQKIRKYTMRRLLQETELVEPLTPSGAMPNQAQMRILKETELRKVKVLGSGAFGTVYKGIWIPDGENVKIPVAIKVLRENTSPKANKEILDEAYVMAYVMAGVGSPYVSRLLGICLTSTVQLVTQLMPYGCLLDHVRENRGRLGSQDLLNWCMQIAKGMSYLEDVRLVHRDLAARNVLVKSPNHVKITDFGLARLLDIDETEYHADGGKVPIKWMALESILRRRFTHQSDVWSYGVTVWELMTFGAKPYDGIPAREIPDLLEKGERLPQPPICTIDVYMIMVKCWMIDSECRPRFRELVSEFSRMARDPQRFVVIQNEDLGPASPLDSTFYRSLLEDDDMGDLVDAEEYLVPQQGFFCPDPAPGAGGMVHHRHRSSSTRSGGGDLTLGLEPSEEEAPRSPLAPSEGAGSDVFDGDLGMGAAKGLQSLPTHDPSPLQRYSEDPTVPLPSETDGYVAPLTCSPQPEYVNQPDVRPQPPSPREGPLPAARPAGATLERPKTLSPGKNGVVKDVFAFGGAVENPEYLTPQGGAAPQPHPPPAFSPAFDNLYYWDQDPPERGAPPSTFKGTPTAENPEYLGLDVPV
The target of a further experiment is EGFR (Homo sapiens (Human), UniProt P00533). The experiment in a line: ErbB Enzyme Assay (HTRF KinEASE-TK), Assay 3. The class given is biochemical. A general note: In TR-FRET formats the signal depends on donor and acceptor labels being close together.
Chain of EGFR (P00533 25-1210): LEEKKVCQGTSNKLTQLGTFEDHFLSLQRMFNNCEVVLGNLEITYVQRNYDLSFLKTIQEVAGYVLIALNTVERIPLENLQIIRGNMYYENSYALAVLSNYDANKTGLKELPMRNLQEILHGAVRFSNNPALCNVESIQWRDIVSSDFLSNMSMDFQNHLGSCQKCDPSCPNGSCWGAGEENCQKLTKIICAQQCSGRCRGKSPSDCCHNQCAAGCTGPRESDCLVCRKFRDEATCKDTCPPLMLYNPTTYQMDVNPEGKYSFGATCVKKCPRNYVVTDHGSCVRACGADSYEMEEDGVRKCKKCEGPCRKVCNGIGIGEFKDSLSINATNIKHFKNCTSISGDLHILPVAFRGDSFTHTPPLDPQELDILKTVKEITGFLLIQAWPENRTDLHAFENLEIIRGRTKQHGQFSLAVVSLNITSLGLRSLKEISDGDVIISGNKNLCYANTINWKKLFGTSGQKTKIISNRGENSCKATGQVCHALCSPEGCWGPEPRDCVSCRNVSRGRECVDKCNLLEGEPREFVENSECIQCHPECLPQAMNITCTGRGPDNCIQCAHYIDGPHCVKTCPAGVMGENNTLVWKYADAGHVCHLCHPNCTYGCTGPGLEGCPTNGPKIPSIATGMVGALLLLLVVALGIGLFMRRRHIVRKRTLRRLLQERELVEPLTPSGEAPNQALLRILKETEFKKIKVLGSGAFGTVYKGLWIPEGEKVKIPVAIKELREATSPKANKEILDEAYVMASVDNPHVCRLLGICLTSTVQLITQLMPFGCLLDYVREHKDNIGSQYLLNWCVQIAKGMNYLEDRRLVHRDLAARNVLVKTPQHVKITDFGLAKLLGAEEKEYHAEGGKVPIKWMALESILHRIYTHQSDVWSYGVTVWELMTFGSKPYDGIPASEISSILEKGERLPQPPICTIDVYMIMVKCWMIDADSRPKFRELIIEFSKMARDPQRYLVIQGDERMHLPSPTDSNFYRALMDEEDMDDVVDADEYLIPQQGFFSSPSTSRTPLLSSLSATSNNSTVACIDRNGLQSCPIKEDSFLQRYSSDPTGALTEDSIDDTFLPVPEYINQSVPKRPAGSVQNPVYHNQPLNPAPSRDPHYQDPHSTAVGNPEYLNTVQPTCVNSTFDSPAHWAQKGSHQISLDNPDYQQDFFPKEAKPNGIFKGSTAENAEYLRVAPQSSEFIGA
In a further experiment the target is ErbB2 WT (Homo sapiens (Human), UniProt P04626). Kind of experiment: ErbB Enzyme Assay (HTRF KinEASE-TK), Assay 2. The format is biochemical.
Chain of ErbB2 WT (P04626 23-1255): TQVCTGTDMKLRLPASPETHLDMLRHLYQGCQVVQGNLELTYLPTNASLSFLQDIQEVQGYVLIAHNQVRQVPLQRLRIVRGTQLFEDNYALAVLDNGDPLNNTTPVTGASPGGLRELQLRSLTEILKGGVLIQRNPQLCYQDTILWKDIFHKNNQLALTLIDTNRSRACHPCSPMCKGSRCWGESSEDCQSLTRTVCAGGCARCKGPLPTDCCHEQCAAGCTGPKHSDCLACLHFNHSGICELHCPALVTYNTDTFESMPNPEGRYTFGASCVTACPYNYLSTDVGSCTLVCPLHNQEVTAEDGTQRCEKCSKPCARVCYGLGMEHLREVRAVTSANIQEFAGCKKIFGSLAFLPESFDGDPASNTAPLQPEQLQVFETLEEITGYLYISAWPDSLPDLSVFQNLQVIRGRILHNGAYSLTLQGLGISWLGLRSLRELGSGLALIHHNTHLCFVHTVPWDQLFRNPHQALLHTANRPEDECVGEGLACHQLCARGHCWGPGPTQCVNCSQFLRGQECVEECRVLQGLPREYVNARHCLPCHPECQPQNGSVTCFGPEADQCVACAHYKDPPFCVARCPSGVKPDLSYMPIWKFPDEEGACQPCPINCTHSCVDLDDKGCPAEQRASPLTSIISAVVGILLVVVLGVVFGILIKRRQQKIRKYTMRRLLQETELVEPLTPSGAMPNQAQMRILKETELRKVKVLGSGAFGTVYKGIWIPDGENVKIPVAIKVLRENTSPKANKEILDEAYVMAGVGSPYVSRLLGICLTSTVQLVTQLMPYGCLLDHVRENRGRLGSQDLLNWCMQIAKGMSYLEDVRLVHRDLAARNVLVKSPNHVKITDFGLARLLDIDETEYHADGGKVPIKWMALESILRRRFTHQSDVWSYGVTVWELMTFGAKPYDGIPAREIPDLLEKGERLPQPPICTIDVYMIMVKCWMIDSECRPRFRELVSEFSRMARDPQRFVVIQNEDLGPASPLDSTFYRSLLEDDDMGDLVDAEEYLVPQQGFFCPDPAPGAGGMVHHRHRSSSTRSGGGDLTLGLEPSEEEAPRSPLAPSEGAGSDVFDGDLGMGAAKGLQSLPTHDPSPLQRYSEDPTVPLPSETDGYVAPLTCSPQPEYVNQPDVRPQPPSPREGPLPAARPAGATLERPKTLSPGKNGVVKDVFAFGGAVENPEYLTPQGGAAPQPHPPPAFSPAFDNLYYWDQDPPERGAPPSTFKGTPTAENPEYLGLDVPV
The mark [2] stands for this setting: EGF-stimulated EGFR WT phosphorylation.
Setting [3] is: cellular EGFR WT phosphorylation, EGF-stimulated.
Where [4] appears, read: cellular ErbB2 YVMA phosphorylation.

Chain of EGFR wild type (EGFR WT) (P00533 25-1210): as the sequence (P00533 25-1210) above

A word on the IC50: it is the concentration that inhibits the measured activity by half. `C=CC(=O)N1CC[C@@H]2C[C@H]1CN2c1ccc2ncnc(Nc3cc(C)c(Oc4ccc5c(c4)ncn5C)cc3F)c2n1` [Example 66, 1-((1S,5R)-6-(4-((2-fluoro-5-methyl-4-((1-methyl-1H-benzo[d]imidazol-5-yl)oxy)phenyl)amino)pyrido[3,2-d]pyrimidin-6-yl)-2,6-diazabicyclo[3.2.1]octan-2-yl)prop-2-en-1-one]: the IC50 at EGFR wild type (EGFR WT) (setting [2]) was determined as 153 nM; in experiment [1] (ErbB2 YVMA phosphorylation), 6.1 nM; on EGFR (EGFR enzyme), 84.5 nM; against ErbB2 WT (ErbB2 WT enzyme), 6.8 nM.
In the case of `C=CC(=O)N1CCN(c2ccc3ncnc(Nc4ccc(Oc5ccn6ncnc6c5)c(Cl)c4F)c3n2)C[C@H]1COC` [Example 344], the IC50 is 46.8 nM against EGFR wild type (EGFR WT) (setting [3]), 3.4 nM in experiment [1] (setting [4]), 88.4 nM at EGFR (EGFR enzyme assay) and 7.7 nM on ErbB2 WT (ErbB2 WT enzyme assay).
Regarding `C=CC(=O)N1C[C@H]2C[C@H](c3ccc4ncnc(Nc5ccc(Oc6ccn7ncnc7c6)c(C)c5F)c4n3)C[C@H]2C1` [Example 200, 1-((3aR,5s,6aS)-5-(4-((4-([1,2,4]triazolo[1,5-a]pyridin-7-yloxy)-2-fluoro-3-methylphenyl)amino)pyrido[3,2-d]pyrimidin-6-yl)hexahydrocyclopenta[c]pyrrol-2(1H)-yl)prop-2-en-1-one], the IC50 is at least 5000 nM on EGFR wild type (EGFR WT) (setting [2]), 83.5 nM in experiment [1] (ErbB2 YVMA phosphorylation), 2780 nM at EGFR (EGFR enzyme) and 16.2 nM against ErbB2 WT (ErbB2 WT enzyme).
Turning to `C=CC(=O)N1C[C@@H]2CC[C@H]1C[C@H]2c1ccc2ncnc(Nc3ccc(Oc4ccn5ncnc5c4)c(C)c3F)c2n1` (single isomer, unassigned) [Example 235], the IC50 at EGFR wild type (EGFR WT) (setting [2]) was at least 5000 nM; in experiment [1] (ErbB2 YVMA phosphorylation), 92.1 nM; on EGFR (EGFR enzyme), 1020 nM; at ErbB2 WT (ErbB2 WT enzyme), 31 nM.
On to `C=CC(=O)N1[C@H](C)CN(c2ccc3ncnc(Nc4cc(C)c(Oc5ccn6ncnc6c5)cc4F)c3n2)C[C@@H]1C` [Example 263], for which the IC50 against EGFR wild type (EGFR WT) (setting [3]) is at least 5000 nM; in experiment [1] (setting [4]), 204 nM; on EGFR (EGFR enzyme assay), at least 10000 nM; against ErbB2 WT (ErbB2 WT enzyme assay) it was 148 nM.
The matching figures for `C=CC(=O)N1CCN(c2ccc3ncnc(Nc4cc(Cl)c(Oc5ccn6ncnc6c5)cc4F)c3n2)CC1C(F)F` (stereo not drawn) [Example 365]: 238 nM, 16.5 nM, 465 nM and 17.6 nM.
As to `CC#CC(=O)N1[C@@H]2CC[C@H]1C[C@@H](c1ccc3ncnc(Nc4cc(C)c(Oc5ccn6ncnc6c5)cc4F)c3n1)C2` [Example 208, 1-((1R,3r,5S)-3-(4-((4-([1,2,4]triazolo[1,5-a]pyridin-7-yloxy)-2-fluoro-5-methylphenyl)amino)pyrido[3,2-d]pyrimidin-6-yl)-8-azabicyclo[3.2.1]octan-8-yl)but-2-yn-1-one], the 50% inhibitory concentration (IC50) against EGFR wild type (EGFR WT) (setting [2]) was at least 5000 nM; in experiment [1] (ErbB2 YVMA phosphorylation), 328 nM; against EGFR (EGFR enzyme) it was at least 10000 nM; against ErbB2 WT (ErbB2 WT enzyme), 172 nM.
As to `C=CC(=O)N1CCCC(c2ccc3ncnc(Nc4cc(C)c(Oc5ccn6ncnc6c5)cc4F)c3n2)C1` (stereo not drawn) [Example 370], the IC50 at EGFR wild type (EGFR WT) (setting [3]) is 3170 nM; in experiment [1] (setting [4]), 47.3 nM; at EGFR (EGFR enzyme assay), 1990 nM; against ErbB2 WT (ErbB2 WT enzyme assay) it was 56 nM.
For `C=CC(=O)N1C[C@H]2C[C@@H]1[C@H](c1ccc3ncnc(Nc4ccc(Oc5cnc6c(c5)ncn6C)c(C)c4F)c3n1)C2` [Example 418] the same measures were at least 5000 nM, 33.6 nM, 5600 nM and 119 nM.
For `C=CC(=O)N1CCN(c2ccc3ncnc(Nc4ccc(Oc5ccn6ncnc6c5)c(C)c4F)c3n2)C[C@@H]1C1CC1` (racemic) [Example 163, rac-1-(4-(4-((4-([1,2,4]triazolo[1,5-a]pyridin-7-yloxy)-2-fluoro-3-methylphenyl)amino)pyrido[3,2-d]pyrimidin-6-yl)-2-cyclopropylpiperazin-1-yl)prop-2-en-1-one], the IC50 against EGFR wild type (EGFR WT) (setting [2]) was 1510 nM; in experiment [1] (ErbB2 YVMA phosphorylation), 18.8 nM; against EGFR (EGFR enzyme) it was 8790 nM; against ErbB2 WT (ErbB2 WT enzyme), 42.3 nM.
For `C=CC(=O)N1CCN(c2ccc3ncnc(Nc4ccc(Oc5ccn6ncnc6c5)c(Cl)c4F)c3n2)C[C@H]1C(C)(C)C` [Example 311], the IC50 at EGFR wild type (EGFR WT) (setting [3]) was 562 nM; in experiment [1] (setting [4]) it was 16.2 nM; against EGFR (EGFR enzyme assay), at least 10000 nM; against ErbB2 WT (ErbB2 WT enzyme assay), 80.3 nM.
As to `CC#CC(=O)N1CCN(c2ccc3ncnc(Nc4ccc(Oc5ccn6ncnc6c5)c(C)c4F)c3n2)C[C@@H]1C(F)F` (racemic) [Example 168, rac-1-(4-(4-((4-([1,2,4]triazolo[1,5-a]pyridin-7-yloxy)-2-fluoro-3-methylphenyl)amino)pyrido[3,2-d]pyrimidin-6-yl)-2-(difluoromethyl)piperazin-1-yl)but-2-yn-1-one], the IC50 against EGFR wild type (EGFR WT) (setting [2]) worked out at 356 nM; in experiment [1] (ErbB2 YVMA phosphorylation) it was 16.5 nM; against EGFR (EGFR enzyme), 1790 nM; against ErbB2 WT (ErbB2 WT enzyme), 74.3 nM.
Take `C=CC(=O)N1CCN(c2ccc3ncnc(Nc4cc(C)c(Oc5ccn6ncnc6c5)cc4F)c3n2)CC1` [Example 79, 1-(4-(4-((4-([1,2,4]triazolo[1,5-a]pyridin-7-yloxy)-2-fluoro-5-methylphenyl)amino)pyrido[3,2-d]pyrimidin-6-yl)piperazin-1-yl)prop-2-en-1-one]: the IC50 was at least 5000 nM at EGFR wild type (EGFR WT) (setting [2]), 42.6 nM in experiment [1] (ErbB2 YVMA phosphorylation), at least 10000 nM at EGFR (EGFR enzyme) and 104 nM against ErbB2 WT (ErbB2 WT enzyme).
In the case of `C=CC(=O)N1CC[C@@H]2C[C@H]1CN2c1ccc2ncnc(Nc3ccc(Oc4cnc5c(c4)ncn5C)c(C)c3F)c2n1` [Example 317], the IC50 against EGFR wild type (EGFR WT) (setting [3]) is 117 nM; in experiment [1] (setting [4]), 6.4 nM; on EGFR (EGFR enzyme assay) it was 268 nM; against ErbB2 WT (ErbB2 WT enzyme assay) it was 44 nM.
With `C=CC(=O)N1CC2CC(C1)N2c1ccc2ncnc(Nc3cc(C)c(Oc4ccn5ncnc5c4)cc3F)c2n1` [Example 336], the IC50 against EGFR wild type (EGFR WT) (setting [3]) amounted to 4880 nM; in experiment [1] (setting [4]) it was 50.5 nM; against EGFR (EGFR enzyme assay) it was 5700 nM; at ErbB2 WT (ErbB2 WT enzyme assay) it was 203 nM.
As for `C=CC(=O)N1CCCC(c2ccc3ncnc(Nc4ccc(Oc5ccn6ncnc6c5)c(C)c4F)c3n2)CC1` (stereo not drawn) [Example 189, 1-(4-(4-((4-([1,2,4]triazolo[1,5-a]pyridin-7-yloxy)-2-fluoro-3-methylphenyl)amino)pyrido[3,2-d]pyrimidin-6-yl)azepan-1-yl)prop-2-en-1-one], the IC50 at EGFR wild type (EGFR WT) (setting [2]) came to 1790 nM; in experiment [1] (ErbB2 YVMA phosphorylation) it was 41.2 nM; at EGFR (EGFR enzyme), 1280 nM; at ErbB2 WT (ErbB2 WT enzyme), 11.1 nM.
`C=CC(=O)N1CCN(c2ccc3ncnc(Nc4ccc(Oc5ccn6ncnc6c5)c(Cl)c4F)c3n2)CC1(C)C` [Example 87, 1-(4-(4-((4-([1,2,4]triazolo[1,5-a]pyridin-7-yloxy)-3-chloro-2-fluorophenyl)amino)pyrido[3,2-d]pyrimidin-6-yl)-2,2-dimethylpiperazin-1-yl)prop-2-en-1-one]: the IC50 against EGFR wild type (EGFR WT) (setting [2]) stood at 178 nM; in experiment [1] (ErbB2 YVMA phosphorylation), 8.8 nM; against EGFR (EGFR enzyme) it was 463 nM; against ErbB2 WT (ErbB2 WT enzyme), 7.5 nM.
With `C=CC(=O)N1CCN(c2nc3c(Nc4ccc(Oc5ccn6ncnc6c5)c(C)c4F)ncnc3cc2Cl)CC1(C)C` [Example 160, 1-(4-(4-((4-([1,2,4]triazolo[1,5-a]pyridin-7-yloxy)-2-fluoro-3-methylphenyl)amino)-7-chloropyrido[3,2-d]pyrimidin-6-yl)-2,2-dimethylpiperazin-1-yl)prop-2-en-1-one], the IC50 at EGFR wild type (EGFR WT) (setting [2]) is at least 5000 nM; in experiment [1] (ErbB2 YVMA phosphorylation) it was 165 nM; on EGFR (EGFR enzyme), at least 10000 nM; on ErbB2 WT (ErbB2 WT enzyme) it was 515 nM.
`C=CC(=O)N1[C@@H]2CC[C@H]1[C@H](c1ccc3ncnc(Nc4cc(C)c(Oc5ccn6ncnc6c5)cc4F)c3n1)C2` [Example 392]: the IC50 is at least 5000 nM on EGFR wild type (EGFR WT) (setting [3]), 82 nM in experiment [1] (setting [4]), 1480 nM against EGFR (EGFR enzyme assay) and 9.8 nM at ErbB2 WT (ErbB2 WT enzyme assay).
Consider `C=CC(=O)N1CCCC(c2ccc3ncnc(Nc4ccc(Oc5ccn6ncnc6c5)c(Cl)c4F)c3n2)CC1` (stereo not drawn) [Example 399], for which the IC50 against EGFR wild type (EGFR WT) (setting [3]) was determined as 461 nM; in experiment [1] (setting [4]), 19 nM; at EGFR (EGFR enzyme assay) it was 177 nM; on ErbB2 WT (ErbB2 WT enzyme assay), 1.9 nM.
For `CC#CC(=O)N1C[C@@H]2C[C@H]1CN2c1ccc2ncnc(Nc3ccc(Oc4ccn5ncnc5c4)c(Cl)c3F)c2n1` [Example 316] the same measures were 1450 nM, 61.6 nM, 1970 nM and 23.1 nM.
In the case of `C=CC(=O)N1[C@@H]2CC[C@H]1C[C@@H](c1ccc3ncnc(Nc4cc(C)c(Oc5cnc6c(c5)ncn6C)cc4F)c3n1)C2` [Example 226, 1-((1R,3r,5S)-3-(4-((2-fluoro-5-methyl-4-((3-methyl-3H-imidazo[4,5-b]pyridin-6-yl)oxy)phenyl)amino)pyrido[3,2-d]pyrimidin-6-yl)-8-azabicyclo[3.2.1]octan-8-yl)prop-2-en-1-one], the IC50 is at least 5000 nM against EGFR wild type (EGFR WT) (setting [2]), 37.5 nM in experiment [1] (ErbB2 YVMA phosphorylation), at least 10000 nM against EGFR (EGFR enzyme) and 310 nM against ErbB2 WT (ErbB2 WT enzyme).
Consider `C=C(F)C(=O)N1CCN(c2ccc3ncnc(Nc4ccc(Oc5ccn6ncnc6c5)c(C)c4F)c3n2)CC1` [Example 185, 1-(4-(4-((4-([1,2,4]triazolo[1,5-a]pyridin-7-yloxy)-2-fluoro-3-methylphenyl)amino)pyrido[3,2-d]pyrimidin-6-yl)piperazin-1-yl)-2-fluoroprop-2-en-1-one], for which the IC50 on EGFR wild type (EGFR WT) (setting [2]) is at least 5000 nM; in experiment [1] (ErbB2 YVMA phosphorylation), 315 nM; at EGFR (EGFR enzyme), at least 10000 nM; on ErbB2 WT (ErbB2 WT enzyme), 128 nM.
For the compound `C=CC(=O)N1CC[C@H](c2ccc3ncnc(Nc4ccc(Oc5cnc6c(c5)ncn6C)c(Cl)c4)c3n2)CC1(C)C` (racemic) [Example 272], the IC50 is at least 5000 nM on EGFR wild type (EGFR WT) (setting [3]), 76.9 nM in experiment [1] (setting [4]), at least 10000 nM at EGFR (EGFR enzyme assay) and 124 nM on ErbB2 WT (ErbB2 WT enzyme assay).

These data come from patent publication US12447153B2, “HER2 mutation inhibitors” (Array BioPharma Inc., priority 2021, dated 2025).
